Measured values from patent US20240024273A1, “TOPICAL ADMINISTRATION OF 2-(DIETHYLAMINO)ETHYL 2-(4-ISOBUTYLPHENYL)PROPRIONATE FOR TREATMENT OF DISEASES” (TECHFIELDS PHARMA CO., LTD., priority 2020, published 2024).

System: Subjects with Osteoarthritis of the Knee
Assay: Second Phase 2 study: safety (treatment-emergent adverse events)
Type: in vivo, human
Set-up: Serious Treatment-emergent Adverse Event: SAE Criteria: scale not given here
Text: Safety assessments will be performed at each visit and will include assessment of AEs, vital signs (blood pressure, pulse rate, and oral temperature), clinical laboratories, physical examination, skin irritation, and electrocardiograms (ECGs) as indicated in the study flow chart, Table 47.
Safety assessments will include AEs, vital signs (blood pressures, pulse rate, and oral temperature), clinical laboratories, physical examination, skin irritation, and ECGs at various time points during the study as indicated in the study flow chart.
Adverse events of interest include: local skin reactions around the treated knee(s), upper stomach pain, GI bleeding, serious cardiovascular side effects (e.g., thrombotic events, myocardial infarction, or stroke), jaundice, elevated liver function tests, and nausea.
Safety analyses will be conducted on the SAS. Safety parameters will be listed and summarized using standard descriptive statistics, as appropriate. No formal statistical analyses are planned.

[1] = 4.375 mg, BID, subject 105/07/F64, abdominal aortic aneurysm

CCN(CC)CCOC(=O)C(C)c1ccc(CC(C)C)cc1 (stereo not shown) [2-(diethylamino)ethyl 2-(4-isobutylphenyl)propionate]
Serious Treatment-emergent Adverse Event (4.375 mg, BID, subject 105/07/F64, [aortic aneurysm] (Blood and Lymphatic System Disorders)): abdominal aortic aneurysm | Serious Treatment-emergent Adverse Event: Relationship to Study Drug [1]: Unrelated | Serious Treatment-emergent Adverse Event: SAE Criteria [1]: 1 | Serious Treatment-emergent Adverse Event: Severity [1]: Severe | Serious Treatment-emergent Adverse Event: Outcome (4.375 mg, BID, subject 105/07/F64, abdominal aortic aneurysm, cell wraps: Results / in / Death): Death | GI disorders incidence rate (4.375 mg/knee BID): 4.2% | incidence rate of AEs possibly, probably, or definitely related to study drug (4.375 mg/knee BID): 33.8% | infections and infestations incidence rate (4.375 mg/knee BID): 32.4% | positive fecal occult blood test incidence rate (4.375 mg/knee BID): 7.0% | Abdominal Pain Upper: number of adverse events (4.375 mg/knee, BID, N = 71): 1 | Abdominal Pain Upper: percentage of subjects with adverse events (4.375 mg/knee, BID, N = 71): 1.4% | Abdominal Pain Upper: subjects with adverse events (4.375 mg/knee, BID, N = 71): 1 | Administration Site Conditions: number of adverse events (4.375 mg/knee, BID, N = 71): 1 | Administration Site Conditions: percentage of subjects with adverse events (4.375 mg/knee, BID, N = 71): 1.4% | Administration Site Conditions: subjects with adverse events (4.375 mg/knee, BID, N = 71): 1 | Alanine Aminotransferase Increased: number of adverse events (4.375 mg/knee, BID, N = 71): 1 | Alanine Aminotransferase Increased: percentage of subjects with adverse events (4.375 mg/knee, BID, N = 71): 1.4% | Alanine Aminotransferase Increased: subjects with adverse events (4.375 mg/knee, BID, N = 71): 1 | Application Site Irritation: number of adverse events (4.375 mg/knee, BID, N = 71): 1 | Application Site Irritation: percentage of subjects with adverse events (4.375 mg/knee, BID, N = 71): 1.4% | Application Site Irritation: subjects with adverse events (4.375 mg/knee, BID, N = 71): 1 | Aspartate Aminotransferase Increased: number of adverse events (4.375 mg/knee, BID, N = 71): 3 | Aspartate Aminotransferase Increased: percentage of subjects with adverse events (4.375 mg/knee, BID, N = 71): 4.2% | Aspartate Aminotransferase Increased: subjects with adverse events (4.375 mg/knee, BID, N = 71): 3 | Back Pain: number of adverse events (4.375 mg/knee, BID, N = 71): 1(%)[1] | Back Pain: subjects with adverse events, number (percentage) (4.375 mg/knee, BID, N = 71): 1(%)[1] | Blood Alkaline Phosphatase Increased: number of adverse events (4.375 mg/knee, BID, N = 71): 1 | Blood Alkaline Phosphatase Increased: percentage of subjects with adverse events (4.375 mg/knee, BID, N = 71): 1.4% | Blood Alkaline Phosphatase Increased: subjects with adverse events (4.375 mg/knee, BID, N = 71): 1 | Blood Bilirubin Increased: number of adverse events (4.375 mg/knee, BID, N = 71): 1 | Blood Bilirubin Increased: percentage of subjects with adverse events (4.375 mg/knee, BID, N = 71): 1.4% | Blood Bilirubin Increased: subjects with adverse events (4.375 mg/knee, BID, N = 71): 1 | Contusion: number of adverse events (4.375 mg/knee, BID, N = 71): 2 | Contusion: subjects with adverse events, number (percentage) (4.375 mg/knee, BID, N = 71): 2(2.8%) | Cough: number of adverse events (4.375 mg/knee, BID, N = 71): 1 | Cough: subjects with adverse events, number (percentage) (4.375 mg/knee, BID, N = 71): 1(1.4%) | Ear Pain: number of adverse events (4.375 mg/knee, BID, N = 71): 1(%)[1] | Ear Pain: subjects with adverse events (4.375 mg/knee, BID, N = 71): 1(%)[1] | Ear and Labyrinth Disorders: number of adverse events (4.375 mg/knee, BID, N = 71): 1 | Ear and Labyrinth Disorders: percentage of subjects with adverse events (4.375 mg/knee, BID, N = 71): 1.4% | Ear and Labyrinth Disorders: subjects with adverse events (4.375 mg/knee, BID, N = 71): 1 | Fall: number of adverse events (4.375 mg/knee, BID, N = 71): 1 | Fall: subjects with adverse events, number (percentage) (4.375 mg/knee, BID, N = 71): 1(1.4%) | Frequency of Positive Fecal Occult Blood Test (4.375 mg/knee, BID, N = 71): 6 | Gamma-Glutamyltransferase Increased: number of adverse events (4.375 mg/knee, BID, N = 71): 2 | Gamma-Glutamyltransferase Increased: percentage of subjects with adverse events (4.375 mg/knee, BID, N = 71): 2.8% | Gamma-Glutamyltransferase Increased: subjects with adverse events (4.375 mg/knee, BID, N = 71): 2 | Gastrointestinal Disorders: number of adverse events (4.375 mg/knee, BID, N = 71): 3 | Gastrointestinal Disorders: percentage of subjects with adverse events (4.375 mg/knee, BID, N = 71): 4.2% | Gastrointestinal Disorders: subjects with adverse events (4.375 mg/knee, BID, N = 71): 3 | Headache: number of adverse events (4.375 mg/knee, BID, N = 71): 1 | Headache: subjects with adverse events, number (percentage) (4.375 mg/knee, BID, N = 71): 1(1.4%) | Hypercholesterolaemia: number of adverse events (4.375 mg/knee, BID, N = 71): 1 | Hypercholesterolaemia: percentage of subjects with adverse events (4.375 mg/knee, BID, N = 71): 1.4% | Hypercholesterolaemia: subjects with adverse events (4.375 mg/knee, BID, N = 71): 1 | Hypertension: number of adverse events (4.375 mg/knee, BID, N = 71): 1 | Hypertension: percentage of subjects with adverse events (4.375 mg/knee, BID, N = 71): 1.4% | Hypertension: subjects with adverse events (4.375 mg/knee, BID, N = 71): 1 | Hypertriglyceridemia: number of adverse events (4.375 mg/knee, BID, N = 71): 6 | Hypertriglyceridemia: percentage of subjects with adverse events (4.375 mg/knee, BID, N = 71): 7.0% | Hypertriglyceridemia: subjects with adverse events (4.375 mg/knee, BID, N = 71): 5
